AC50, IC50 and EC50 data for ten compounds are collected here from ChEMBL document CHEMBL1201862, “PubChem BioAssay data set” (2004).

Activity calls are given as the source filed them.

One assay addresses Cytochrome P450 2D6 (Homo sapiens, UniProt P10635).
The target in a further assay is Phospholipase A2 (Homo sapiens, UniProt P04054). Format: functional.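 Also: confirmatory dose-response counterscreen on phospholipase A2, testing hits that came from an ultra-high-throughput screen for ATG4B inhibitors.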
Chain of Phospholipase A2 (P04054 whole entry): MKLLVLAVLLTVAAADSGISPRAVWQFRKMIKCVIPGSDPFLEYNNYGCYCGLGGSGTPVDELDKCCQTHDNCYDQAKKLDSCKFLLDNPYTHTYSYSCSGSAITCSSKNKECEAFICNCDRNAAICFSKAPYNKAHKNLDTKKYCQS
A further assay has as its target T1, Cysteine protease ATG4B (Homo sapiens, UniProt Q9Y4P1).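 Also: Fluorescence-based dose-response confirmation assay measuring inhibition of ATG4B activity.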
T1 sequence (Q9Y4P1 whole entry): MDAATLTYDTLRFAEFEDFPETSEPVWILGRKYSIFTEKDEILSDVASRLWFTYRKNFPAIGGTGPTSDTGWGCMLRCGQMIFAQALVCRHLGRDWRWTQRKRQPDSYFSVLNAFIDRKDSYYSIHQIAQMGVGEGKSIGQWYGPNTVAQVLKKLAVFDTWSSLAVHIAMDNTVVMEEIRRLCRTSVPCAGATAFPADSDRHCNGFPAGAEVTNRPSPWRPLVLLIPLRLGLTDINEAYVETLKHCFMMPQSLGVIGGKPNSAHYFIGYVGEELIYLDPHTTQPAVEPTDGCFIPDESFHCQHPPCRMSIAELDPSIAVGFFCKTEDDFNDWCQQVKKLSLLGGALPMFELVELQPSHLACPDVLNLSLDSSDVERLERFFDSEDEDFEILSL
Format: functional.

For assay [1], the target named is Voltage-dependent T-type calcium channel subunit alpha-1H (Homo sapiens, UniProt O95180). Format: functional.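 Also: channel activity triggered by adding a high calcium stimulation buffer.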
Chain of Voltage-dependent T-type calcium channel subunit alpha-1H (O95180 whole entry): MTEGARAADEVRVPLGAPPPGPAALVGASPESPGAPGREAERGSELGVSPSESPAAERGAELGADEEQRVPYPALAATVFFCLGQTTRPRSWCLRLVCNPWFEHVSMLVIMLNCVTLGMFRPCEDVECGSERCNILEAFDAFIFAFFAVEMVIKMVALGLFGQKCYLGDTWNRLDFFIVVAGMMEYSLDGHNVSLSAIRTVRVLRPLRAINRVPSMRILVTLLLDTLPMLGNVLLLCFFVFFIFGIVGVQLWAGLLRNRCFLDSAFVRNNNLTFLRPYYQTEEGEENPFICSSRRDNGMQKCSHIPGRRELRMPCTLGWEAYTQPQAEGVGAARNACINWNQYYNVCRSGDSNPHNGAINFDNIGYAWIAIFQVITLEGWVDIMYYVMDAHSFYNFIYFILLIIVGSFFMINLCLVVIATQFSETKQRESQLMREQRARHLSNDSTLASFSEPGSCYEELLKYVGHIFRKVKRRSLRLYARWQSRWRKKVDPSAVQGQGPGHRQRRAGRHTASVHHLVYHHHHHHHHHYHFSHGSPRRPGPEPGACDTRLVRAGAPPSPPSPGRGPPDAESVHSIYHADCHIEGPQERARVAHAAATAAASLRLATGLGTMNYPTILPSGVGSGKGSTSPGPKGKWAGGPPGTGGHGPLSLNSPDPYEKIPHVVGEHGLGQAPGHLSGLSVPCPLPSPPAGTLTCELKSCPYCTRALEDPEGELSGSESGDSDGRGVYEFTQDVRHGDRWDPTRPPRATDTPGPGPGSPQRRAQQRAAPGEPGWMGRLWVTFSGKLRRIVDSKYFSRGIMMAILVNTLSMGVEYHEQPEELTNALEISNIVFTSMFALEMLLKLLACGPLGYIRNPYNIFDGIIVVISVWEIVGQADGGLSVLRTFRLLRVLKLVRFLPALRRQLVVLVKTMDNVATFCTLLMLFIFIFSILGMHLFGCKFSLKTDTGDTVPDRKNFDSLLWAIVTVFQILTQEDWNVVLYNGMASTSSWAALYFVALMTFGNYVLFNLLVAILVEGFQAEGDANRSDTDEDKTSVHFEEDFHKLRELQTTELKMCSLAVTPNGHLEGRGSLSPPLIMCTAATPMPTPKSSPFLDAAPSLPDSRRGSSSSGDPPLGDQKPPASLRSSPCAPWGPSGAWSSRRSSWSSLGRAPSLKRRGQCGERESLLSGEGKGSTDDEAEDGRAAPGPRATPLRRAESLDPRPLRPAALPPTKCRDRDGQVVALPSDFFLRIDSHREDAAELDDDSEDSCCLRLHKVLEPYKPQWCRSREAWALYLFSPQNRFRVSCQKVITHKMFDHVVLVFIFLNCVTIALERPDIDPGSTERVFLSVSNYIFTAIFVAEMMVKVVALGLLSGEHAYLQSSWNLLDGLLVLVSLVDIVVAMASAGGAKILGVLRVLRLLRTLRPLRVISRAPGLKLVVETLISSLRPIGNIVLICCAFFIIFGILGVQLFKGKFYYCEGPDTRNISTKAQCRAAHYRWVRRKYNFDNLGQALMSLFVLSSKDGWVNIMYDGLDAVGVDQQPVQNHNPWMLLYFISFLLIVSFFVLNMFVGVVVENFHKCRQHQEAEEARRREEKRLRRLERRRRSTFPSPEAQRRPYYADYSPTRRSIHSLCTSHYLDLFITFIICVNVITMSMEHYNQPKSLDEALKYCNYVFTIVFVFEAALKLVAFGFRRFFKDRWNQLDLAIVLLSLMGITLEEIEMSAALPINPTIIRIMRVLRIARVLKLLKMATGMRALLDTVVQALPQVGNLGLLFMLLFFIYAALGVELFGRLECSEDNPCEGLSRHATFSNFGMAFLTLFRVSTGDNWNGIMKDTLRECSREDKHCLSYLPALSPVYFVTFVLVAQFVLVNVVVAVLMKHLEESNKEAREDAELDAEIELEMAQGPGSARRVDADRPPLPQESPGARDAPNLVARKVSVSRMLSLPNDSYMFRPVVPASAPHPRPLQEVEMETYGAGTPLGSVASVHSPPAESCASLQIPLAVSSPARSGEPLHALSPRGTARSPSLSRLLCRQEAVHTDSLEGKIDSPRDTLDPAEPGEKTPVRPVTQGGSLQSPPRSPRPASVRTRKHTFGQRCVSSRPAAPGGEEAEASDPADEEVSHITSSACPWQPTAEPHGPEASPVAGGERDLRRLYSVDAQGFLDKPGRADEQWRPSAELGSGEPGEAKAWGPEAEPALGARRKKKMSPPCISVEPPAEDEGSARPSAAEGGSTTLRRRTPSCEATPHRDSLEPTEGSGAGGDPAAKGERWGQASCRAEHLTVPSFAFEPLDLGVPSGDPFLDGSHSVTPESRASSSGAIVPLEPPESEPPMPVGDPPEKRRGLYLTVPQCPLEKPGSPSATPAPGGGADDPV
In assay [2] the target is T2, Dual specificity protein phosphatase 6 (Rattus norvegicus, UniProt Q64346).
T2 sequence (Q64346 whole entry): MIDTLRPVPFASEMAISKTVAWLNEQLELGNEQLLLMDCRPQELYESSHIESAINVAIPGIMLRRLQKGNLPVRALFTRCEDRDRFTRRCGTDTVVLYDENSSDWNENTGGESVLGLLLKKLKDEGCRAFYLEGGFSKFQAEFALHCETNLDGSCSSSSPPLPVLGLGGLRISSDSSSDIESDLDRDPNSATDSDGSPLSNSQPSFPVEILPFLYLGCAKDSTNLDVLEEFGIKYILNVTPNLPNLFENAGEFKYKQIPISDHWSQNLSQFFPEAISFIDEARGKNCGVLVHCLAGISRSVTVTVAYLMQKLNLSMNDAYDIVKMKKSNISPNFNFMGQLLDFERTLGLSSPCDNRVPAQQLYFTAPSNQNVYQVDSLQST

Assay [3] concerns the target Heat shock cognate 71 kDa protein (Homo sapiens, UniProt P11142). As to the kind of experiment: In Vitro Hsc70 Dose Response Fluorescence Polarization Assay. [Related pubchem assays: 1072 ]. (In general: In fluorescence polarisation assays a small probe gives low polarisation when free and higher when bound to something large.)
In assay [4] the target is T3, Carboxy-terminal domain RNA polymerase II polypeptide A small phosphatase 1 (Homo sapiens, UniProt Q9GZU7).
T3 sequence (Q9GZU7 whole entry): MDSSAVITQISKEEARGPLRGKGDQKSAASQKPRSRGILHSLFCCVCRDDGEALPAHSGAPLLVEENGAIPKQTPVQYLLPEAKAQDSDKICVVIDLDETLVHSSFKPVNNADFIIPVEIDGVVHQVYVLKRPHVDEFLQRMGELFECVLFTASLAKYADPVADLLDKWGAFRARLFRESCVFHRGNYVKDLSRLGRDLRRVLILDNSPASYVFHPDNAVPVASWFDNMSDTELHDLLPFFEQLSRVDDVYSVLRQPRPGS
As to the kind of experiment: CTDSP1 inhibitors, concentration-response, biochemical, absorbance readout, ultra-high-throughput screen actives (AID 540297). The assay is classed as functional.

Assay [5] addresses T2, Dual specificity protein phosphatase 6. As to the kind of experiment: inhibition of rat DUSP6 enzyme activity – biochemical, in vitro, primary screen (AID 425).
In assay [6] the target is Glyceraldehyde-3-phosphate dehydrogenase (Homo sapiens, UniProt P04406).
Chain of Glyceraldehyde-3-phosphate dehydrogenase (P04406 whole entry): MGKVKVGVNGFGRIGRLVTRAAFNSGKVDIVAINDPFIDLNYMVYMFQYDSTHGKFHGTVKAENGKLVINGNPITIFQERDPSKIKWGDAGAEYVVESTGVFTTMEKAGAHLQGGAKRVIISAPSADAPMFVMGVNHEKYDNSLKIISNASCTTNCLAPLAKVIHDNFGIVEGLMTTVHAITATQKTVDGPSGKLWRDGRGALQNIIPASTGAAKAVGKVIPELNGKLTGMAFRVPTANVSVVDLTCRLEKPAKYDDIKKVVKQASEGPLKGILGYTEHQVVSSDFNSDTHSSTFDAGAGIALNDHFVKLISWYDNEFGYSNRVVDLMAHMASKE
In assay [7] the target is Heat shock 70 kDa protein 1A (Homo sapiens, UniProt P0DMV8). As to the kind of experiment: inhibition of Hsp70 binding activity – biochemical, fluorescence polarization, SAR follow-up (AID 1072).
Chain of Heat shock 70 kDa protein 1A (P0DMV8 whole entry): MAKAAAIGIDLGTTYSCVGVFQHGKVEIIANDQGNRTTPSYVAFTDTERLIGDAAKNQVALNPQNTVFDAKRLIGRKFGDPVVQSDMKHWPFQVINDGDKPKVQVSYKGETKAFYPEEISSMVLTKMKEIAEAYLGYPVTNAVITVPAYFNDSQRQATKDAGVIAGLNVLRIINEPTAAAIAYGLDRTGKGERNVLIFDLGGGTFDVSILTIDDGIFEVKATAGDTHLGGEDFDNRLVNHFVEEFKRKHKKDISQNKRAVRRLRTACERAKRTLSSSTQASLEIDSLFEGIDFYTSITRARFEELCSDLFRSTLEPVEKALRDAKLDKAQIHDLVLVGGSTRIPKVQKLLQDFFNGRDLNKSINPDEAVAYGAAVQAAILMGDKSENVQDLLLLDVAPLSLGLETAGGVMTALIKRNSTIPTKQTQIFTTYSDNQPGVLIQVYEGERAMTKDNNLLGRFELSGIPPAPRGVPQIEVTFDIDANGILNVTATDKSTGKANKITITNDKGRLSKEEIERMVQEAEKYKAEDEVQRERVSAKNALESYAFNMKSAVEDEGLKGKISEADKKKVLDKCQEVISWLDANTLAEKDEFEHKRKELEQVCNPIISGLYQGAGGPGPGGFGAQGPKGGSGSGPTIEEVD
Assay [8] concerns the target T4, Tyrosine-protein phosphatase non-receptor type 7 (Homo sapiens, UniProt P35236).
T4 sequence (P35236 whole entry): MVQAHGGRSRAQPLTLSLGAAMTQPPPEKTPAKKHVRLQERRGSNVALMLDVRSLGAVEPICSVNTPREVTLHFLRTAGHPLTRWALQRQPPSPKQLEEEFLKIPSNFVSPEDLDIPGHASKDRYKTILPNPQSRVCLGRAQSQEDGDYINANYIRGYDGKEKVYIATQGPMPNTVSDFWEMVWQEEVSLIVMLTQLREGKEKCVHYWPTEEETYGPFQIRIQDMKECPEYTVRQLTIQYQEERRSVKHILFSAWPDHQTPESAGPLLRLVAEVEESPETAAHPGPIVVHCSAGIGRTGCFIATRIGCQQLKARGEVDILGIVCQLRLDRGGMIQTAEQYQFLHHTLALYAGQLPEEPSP
The assay is classed as functional.

Assay [9] has as its target T2, Dual specificity protein phosphatase 6. Format: functional.
The subject of the next assay is Escherichia coli. As to the kind of experiment: microbe, parasite or virus in culture.
The test system of assay [10] is Streptococcus sp. 'group A'. As to the kind of experiment: Streptococcus pyogenes SK(-)GAS viability under kanamycin – luminescence, BacTiterGlo, confirmation, counter-screen for streptokinase expression inhibitor project, dose response (AID 1900). Format: functional, organism-based.
The next assay concerns the target Prothrombin (Bos taurus, UniProt P00735). As to the kind of experiment: thrombin protease inhibitors – biochemical, fluorescence polarization, uHTS hits, dose response (AID 602369). The assay is classed as functional.
The test system of another assay is Streptococcus. As to the kind of experiment: GAS UMAA2166 growth inhibition – luminescence, BacTiterGlo, counter-screen for streptokinase expression inhibitor project, dose response (AID 1915).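 Also: potency for reduction of bacterial viability or growth.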 Format: functional, organism-based.
Assay [11] concerns the target 26S proteasome non-ATPase regulatory subunit 14 (Homo sapiens, UniProt O00487). As to the kind of experiment: inhibition of proteasome subunit RPN11 – biochemical, fluorescence polarization, uHTS hits, confirmation (AID 602368). Format: functional.
The target in assay [12] is 72 kDa type IV collagenase (Homo sapiens, UniProt P08253). As to the kind of experiment: Dose Response validation of uHTS RPN11 inhibitor hits using a MMP-2 Fluorescence assay. The assay is classed as functional.
Chain of 72 kDa type IV collagenase (P08253 whole entry): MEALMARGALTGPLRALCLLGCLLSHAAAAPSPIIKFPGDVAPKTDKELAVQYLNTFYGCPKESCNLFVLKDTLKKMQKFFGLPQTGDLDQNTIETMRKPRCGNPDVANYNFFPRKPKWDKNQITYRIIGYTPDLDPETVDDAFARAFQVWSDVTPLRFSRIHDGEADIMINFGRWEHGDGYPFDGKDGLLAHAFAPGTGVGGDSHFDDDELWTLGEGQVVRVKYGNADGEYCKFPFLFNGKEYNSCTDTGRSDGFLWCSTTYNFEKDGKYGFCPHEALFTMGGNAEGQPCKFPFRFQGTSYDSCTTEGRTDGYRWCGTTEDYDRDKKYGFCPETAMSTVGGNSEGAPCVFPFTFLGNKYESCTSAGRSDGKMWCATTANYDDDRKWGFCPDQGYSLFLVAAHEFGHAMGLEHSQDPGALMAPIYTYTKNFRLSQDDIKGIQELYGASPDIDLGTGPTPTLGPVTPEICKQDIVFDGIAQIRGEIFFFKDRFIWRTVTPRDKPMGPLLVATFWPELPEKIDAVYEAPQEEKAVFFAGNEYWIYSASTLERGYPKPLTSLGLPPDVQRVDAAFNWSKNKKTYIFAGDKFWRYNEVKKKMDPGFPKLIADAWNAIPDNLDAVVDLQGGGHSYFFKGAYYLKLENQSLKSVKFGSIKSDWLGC
Assay [13] has as its target FAD-linked sulfhydryl oxidase ALR (Homo sapiens, UniProt P55789). As to the kind of experiment: ALR-catalysed DTT oxidation blockers – biochemical, H2O2 detection, luminescence, cherry-pick, dose response (AID 493248).
Assay [14] concerns the target Dual specificity tyrosine-phosphorylation-regulated kinase 1A (Rattus norvegicus, UniProt Q63470). The assay is classed as biochemical, Homo sapiens.

Chain of Heat shock cognate 71 kDa protein (P11142 whole entry, the tested form may be a part): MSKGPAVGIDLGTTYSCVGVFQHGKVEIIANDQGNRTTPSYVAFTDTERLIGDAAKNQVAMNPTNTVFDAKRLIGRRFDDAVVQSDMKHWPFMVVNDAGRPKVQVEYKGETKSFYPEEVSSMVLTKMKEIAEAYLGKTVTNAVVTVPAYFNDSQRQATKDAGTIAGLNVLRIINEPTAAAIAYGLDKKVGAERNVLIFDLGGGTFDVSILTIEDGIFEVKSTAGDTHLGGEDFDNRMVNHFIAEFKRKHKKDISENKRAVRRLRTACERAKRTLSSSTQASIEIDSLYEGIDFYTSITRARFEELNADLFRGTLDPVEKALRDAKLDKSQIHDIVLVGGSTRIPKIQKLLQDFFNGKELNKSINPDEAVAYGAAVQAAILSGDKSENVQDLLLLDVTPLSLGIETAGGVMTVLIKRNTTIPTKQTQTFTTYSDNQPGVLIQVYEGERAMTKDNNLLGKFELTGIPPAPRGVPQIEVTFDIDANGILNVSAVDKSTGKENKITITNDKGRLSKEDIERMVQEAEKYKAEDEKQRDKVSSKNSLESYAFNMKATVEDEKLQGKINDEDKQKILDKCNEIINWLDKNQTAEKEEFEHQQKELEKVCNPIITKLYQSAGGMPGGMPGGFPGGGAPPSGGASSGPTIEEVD
Chain of FAD-linked sulfhydryl oxidase ALR (P55789 whole entry): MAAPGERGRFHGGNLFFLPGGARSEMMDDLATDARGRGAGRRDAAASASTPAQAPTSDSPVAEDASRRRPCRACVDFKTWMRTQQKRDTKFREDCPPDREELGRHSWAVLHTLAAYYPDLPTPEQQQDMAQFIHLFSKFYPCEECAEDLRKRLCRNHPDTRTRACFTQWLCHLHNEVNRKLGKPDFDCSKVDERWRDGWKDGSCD

One may read the AC50 as the concentration at which the activity in the assay is half-maximal. By IC50 is commonly meant the midpoint of a concentration-inhibition curve. Broadly, the EC50 is the concentration needed to bring the measured effect to its halfway point. For `Cc1ccccc1NC(=O)/C(=C/c1ccccc1)c1ccccc1`, at Cytochrome P450 2D6, the AC50 is 14.1 µM (inconclusive). Besides, the 50% inhibitory concentration (IC50) is 9.58 µM (active) at Phospholipase A2 and 10.8 µM (active) on Cysteine protease ATG4B. For the same compound, the concentration giving a half-maximal response (EC50) in assay [1] is 9.09 µM (active).
In the case of `O=C(CSc1nnc2scc(-c3ccccc3)n12)Nc1nsc(-c2ccccc2)n1`, the IC50 in assay [2] was 6.9 µM (active); in assay [3], > 100 µM (not active); in assay [4] it was 6.59 µM (active); in assay [5] it was 11 µM (active); in assay [6] it was 27.4 µM (active); in [7], > 100 µM (not active). Further, the values for the 50% inhibitory concentration (IC50) in assay [8] and in assay [9] were 12.8 µM (active) and 9.41 µM (active), respectively.
In the case of `CN(c1ccccc1)S(=O)(=O)c1cccc(NC(=O)CN2C(=O)NC3(CCCC3)C2=O)c1`, the concentration at half-maximal activity (AC50) in the assay on Escherichia coli is 40.1 µM (active).
Regarding `Oc1nc(Nc2ccc(Cl)cc2Cl)sc1/C=C1\C=Nc2ccccc21`, the concentration for a half-maximal effect (EC50) in [10] is 1.27 µM (active); in the assay on Streptococcus, 2.61 µM (active). Besides, the IC50 was 38.3 µM (active) on Prothrombin; 1.5 µM (active) at Phospholipase A2; 36.5 µM (active) in [11]; > 100 µM (inactive) in assay [12]; 2.64 µM (active) on Cysteine protease ATG4B.
As to `Cc1cc(C)nc(SC(C)C(=O)N/N=C/c2cccs2)n1` (stereo unspecified), the half-maximal activity concentration (AC50) with Escherichia coli was 22.1 µM (active).
With `O=C(c1cc(O)c(O)c([N+](=O)[O-])c1)c1ccccc1F`, the AC50 was 95 µM (active) with Escherichia coli and 3.2 µM (active) in [13].
With `COc1ccccc1C1CCN(c2cc(O)ccc2[N+](=O)[O-])CC1`, the half-maximal activity concentration (AC50) in assay [14] is 4.38 µM (active).
Take `Cc1cc(NCc2ccc(F)cc2Cl)n2nnnc2n1`: the IC50 at Phospholipase A2 is 12.1 µM (active); at Cysteine protease ATG4B it was 15.7 µM (active).
Consider `CCOC(=O)C1Nc2c(O)cc(C)cc2C2C=CCC12` (stereo unspecified), for which the IC50 in [2] is > 100 µM (inactive); in assay [6], > 100 µM (not active); in assay [8] it was > 100 µM (not active); in assay [9], > 100 µM (inactive).
Consider `O=C(Oc1ccc(-c2ccccc2)cc1)c1cccc2c1NC(C(=O)O)C1CC=CC21` (stereo unspecified), for which the concentration for half-maximal inhibition (IC50) was 3.4 µM (active) in assay [2]; > 100 µM (not active) in assay [3]; > 100 µM (not active) in assay [6]; > 100 µM (not active) in [7]; 5.62 µM (active) in [8]; 3.5 µM (active) in assay [9].
